We go through ten compounds from publication PMC6830242, “In vitro inhibition of Mycobacterium tuberculosis β-carbonic anhydrase 3 with Mono- and dithiocarbamates and evaluation of their toxicity using zebrafish developing embryos” (Journal of Enzyme Inhibition and Medicinal Chemistry, 2019).

Usually Ki stands for a measure of affinity in units of concentration, obtained from inhibition or displacement. A high value points to weaker binding.

In this assay the target is T1, Mtb β-CA3 (Mycobacterium tuberculosis, UniProt P96878).
T1 construct: gene Rv3273
T1 sequence (P96878 555-764 limits assumed): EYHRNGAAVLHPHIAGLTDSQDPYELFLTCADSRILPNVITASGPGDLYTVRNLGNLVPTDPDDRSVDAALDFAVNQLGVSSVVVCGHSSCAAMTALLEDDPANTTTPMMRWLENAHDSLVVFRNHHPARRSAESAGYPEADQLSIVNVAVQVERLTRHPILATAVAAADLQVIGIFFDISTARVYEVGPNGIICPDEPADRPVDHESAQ
The experiment in a line: stopped-flow CO2 hydrase assay. It counts as biochemical. From the text:
stopped-flow CO2 hydrase assay on Mtb β-CA3
`O=C(CN1CCN(C(=O)S)CC1)NC1CCCCC1` [compound 6, 6] gave a Ki of 781 nM.

In turn, `S=C(S)N1CCN(C(=S)S)CC1` [compound 10, bis-piperazine derivative DTC 10] had a Ki of 8 nM.

`COc1ccc(CCNC(=O)S)cc1OC` [compound 7, 3,4-dimethoxyphenylethyl derivative 7] came in with a Ki of 97.9 nM.

In turn, `O=C(S)N1CCOCC1` [compound 2, MTC based morpholine 2] displayed a Ki of 748 nM.

`O=C(S)NCCc1ccccc1` [compound 5, phenylethyl 5] yielded a Ki of 93 nM. This Ki is about 8-fold lower than that of the compound before.

Regarding `S=C(S)N1CCOCC1` [compound 9, morpholine DTC 9], the Ki is 2.4 nM.

`CC(C)CN(CC(C)C)C(=S)S` [compound 8, DTC 8] showed a Ki of 43 nM.

For `O=C(CN1CCN(C(=S)S)CC1)NC1CCCCC1` [compound 11, DTC 11], the Ki is over 2000 nM.

Compound `O=C(S)N1CCN(C(=O)S)CC1` [compound 3, 3] registered a Ki of 812 nM.

In the case of `CCCN(CCC)C(=O)S` [compound 1, 1], the Ki stood at 559 nM.
